These results are taken from patent US20040097740A1, “Method for producing delta 1-pyrrolines” (priority 2000, published 2004).

The nature of data set [1]: log P determination by HPLC on reverse-phase column (C 18), EEC Directive 79/831 Annex V.A8. It counts as physicochemical. The following applies: 43° C.; for chromatographic logP: reverse-phase HPLC column (C 18). As for the experimental part:
The determination is carried out in the acidic range at pH 2.3 using the mobile phases 0.1% aqueous phosphoric acid and acetonitrile; linear gradient from 10% acetonitrile to 90% acetonitrile.

Where [2] appears, read: pH 2.3, pH 2.3, preparation example, 0.1% aqueous phosphoric acid/acetonitrile gradient, read-out: HPLC: log P (pH 2.3).

Structures are written as SMILES. Like-named read-outs stand apart in the source and are kept apart here.

The compound `Fc1cccc(F)c1C1=NC(c2ccc(Br)cc2)CC1` (stereo not drawn) [Example I-1, 2-(4-bromophenyl)-5-(2,6-difluorophenyl)-3,4-dihydro-2H-pyrrole] came in with a melting point of 48 °C. The “HPLC: log P (pH 2.3)” value in data set [1] (pH 2.3, preparation example, 0.1% aqueous phosphoric acid/acetonitrile gradient) amounted to 2.71. In addition, the chromatographic logP in data set [1] (setting [2]) is 2.72.
In turn, `O=C(c1c(F)cccc1F)C1CC1c1ccc(Br)cc1` (stereo not drawn) [Example V-1, [2-(4-bromophenyl)cyclopropyl](2,6-difluorophenyl)methanone] showed a melting point of 64 to 65 °C.
For `[N-]=[N+]=NC(CCC(=O)c1c(F)cccc1F)c1ccc(Br)cc1` (stereo not drawn) [II-1, 4-(4-bromophenyl)-4-azido-1-(2,6-difluorophenyl)-1-butanone], the chromatographic logP in data set [1] (pH 2.3, azides of the formula (II), acidic range pH 2.3, read-out: logP*) came to 4.47; in data set [1] (setting [2]), 4.47.
`O=C(CCC(Cl)c1ccc(Br)cc1)c1c(F)cccc1F` (stereo not drawn) [III-1, 4-(4-bromophenyl)-4-chloro-1-(2,6-difluorophenyl)-1-butanone]: the chromatographic logP turned out to be 4.43 in data set [1] (pH 2.3, haloketones of the formula (III), acidic range pH 2.3, read-out: logP*) and 4.52 in data set [1] (setting [2]).
`O=C(/C=C/c1ccc(Br)cc1)c1c(F)cccc1F` [VI-1, (2E)-3-(4-bromophenyl)-1-(2,6-difluorophenyl)-2-propen-1-one] displayed a melting point of 71 °C.

One may read the melting point as the temperature, or range, at which the solid turns liquid.
